Measured values reported in patent US4626540A, “Substituted 1-amino-4-nitro-acridinones and methods of treating bacterial infections and leukemia with them” (Warner-Lambert Company, priority 1984, dated 1986).
Structures can show the parent of a compound that is named as a salt.

Tests used:
[1] = system: Corynebacterium Sp. ATCC 21698; experiment: In vitro antibacterial (ABMF) microdilution test, Corynebacterium Sp.; type: cell-based; details: ATCC21698, Mueller-Hinton broth, 37° C., 16-24 hours, read-out: ABMF minimal inhibitory conc, Coryn. Species
Excerpt: (§1) Still another test protocol is the in vitro antibacterial (ABMF) test which is a recognized standard microdilution susceptibility procedure in Mueller-Hinton broth against Gram-positive and Gram-negative bacterial test organisms. The procedure is a modification of a state-of-the-art procedure reported in Manual of Clinical Microbiology, Lennette, E. H., ed., by Barry, A. L. and C. Thornsberry at pages 463-474 and by Gavan, T. L. and A. L. Barry at pages 459-462, American Society for Microbiology, Washington, 1980.
(§2) In the test, a given bacterial culture is used to inoculate individual test wells of microdilution trays containing growth medium and test compound, the latter in a microdilution series: 1000, 333, 111, 37, 12, 4, 1.4, and 0.46 micrograms per milliliter. […] For convenience, values are reported for Escherichia coli, Corynebacterium Sp. ATCC 21698, Branhamella catarrhalis, Streptococcus pneumoniae, and Bacillus cereus.

Bacillus cereus = experiment: In vitro antibacterial (ABMF) microdilution test, Bacillus cereus; type: cell-based; details: Mueller-Hinton broth, 37° C., 16-24 hours, read-out: ABMF minimal inhibitory conc, B. cer.
Excerpt: as §1, §2

Streptococcus pneumoniae = experiment: In vitro antibacterial (ABMF) microdilution test, Streptococcus pneumoniae; type: cell-based; details: Mueller-Hinton broth, 37° C., 16-24 hours, read-out: ABMF minimal inhibitory conc, S. pneu.
Excerpt: as §1, §2

[2] = system: lymphocytic leukemia P388; experiment: In vivo lymphocytic leukemia P388 test; set-up: species or system CD2 F1 mice; details: Mus musculus, P388, ip, intraperitoneal, once daily for five days, survival time treated/control, read-out: P388 in vivo T/C × 100
Description: Another test protocol is the in vivo lymphocytic leukemia P388 test. the animals used are either male or female CD2 F1 mice, six or seven animals per test group. The tumor transplant is by intraperitoneal injection of dilute ascitic fluid containing cells of lymphocytic leukemia P388. The test compounds are administered intraperitoneally once daily for five consecutive days at various doses following tumor inoculation. The animals are weighed and survivors are recorded on a regular basis for 30 days. A compound is designated "toxic" if, at a given dose, all animals die prior to four days after the first injection of drug. A ratio of survival time for treated (T)/control (C) animals is calculated. A criterion for efficacy is a ratio T/C times 100 greater than or equal to 125. See Cancer Chemotherapy Reports, Part 3, 3, 1 (1972) for a comprehensive discussion of the protocol.

[3] = system: L1210 murine leukemia cell lines; experiment: In vitro antitumor screening (PDC test), L1210 murine leukemia cell growth; type: cell-based; details: Mus musculus, 72 h; L1210 cells, 37° C., three days; value is ID50 multiplied by 10^7
Description: Another test protocol is the in vitro antitumor screening (PDC test) of compounds of the present invention on L1210 murine leukemia cell lines. L1210 cells, a murine leukemia cell line, were grown in RPMI 1640 supplemented with 5% fetal bovine serum and gentamicin (50 μg/ml).
Drug dilutions were prepared in the apropriate solvent and 20 μl of each dilution were added to 24-well Linbro tissue culture plats, followed by the addition of M 2.0 ml of cell suspension containing 3×10^4 cells per ml. Solvent and medium controls were included in each test. After incubation at 37° C. for three days in 5% CO2, the contents of each well were removed and the cells counted in a ZBI Coulter counter. Percent growth was calculated relative to the controls and the levels of drug activity wre expressed as ID50 in moles per liter using probit paper.

Escherichia coli = experiment: In vitro antibacterial (ABMF) microdilution test, Escherichia coli; type: cell-based; details: Mueller-Hinton broth, 37° C., 16-24 hours, read-out: ABMF minimal inhibitory conc, E. coli
Excerpt: as §1, §2

Branhamella catarrhalis = experiment: In vitro antibacterial (ABMF) microdilution test, Branhamella catarrhalis; type: cell-based; details: Moraxella catarrhalis; Mueller-Hinton broth, 37° C., 16-24 hours; read-out: ABMF minimal inhibitory conc, B. cat.
Excerpt: as §1, §2

HCT-8 cells = experiment: In vitro proliferating human colon adenocarcinoma (HCA) cell screen, HCT-8 cells; type: cell-based; details: 60-65 hours at 37° C., value is ID50 multiplied by 10^7;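 note: ID50 is the molar concentration giving 50% growth inhibition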
Description: One test protocol is the in vitro proliferating human colon adenocarcinoma (HCA) cell screen. In this test, HCT-8 cells (HCA cell line received from Yale University) are trypsinized using trypsin-EDTA. A single cell suspension is achieved by passing the cells through a 26-gauge needle with a 20-cc syringe. A cell suspension is prepared using RPMI 1640+10% FCS+50 μg/ml gentamicin sulfate with a cell concentration of approximately 5,000 cells/ml. The cell suspension is dispensed in Linbro 24-well plates; 1 ml/well. The plates are incubated for approximately 48 hours at 37° C. in a 5% CO2 atmosphere. At this time test compounds are added in the appropriate concentration. Ten μl of the appropriate dilution is added to each well for a titration test. The plates are reincubated an additional 60-65 hours at 37° C. in a 5% CO2 atmosphere. The cells are lysed using a mix of cationic surfactant, glacial acetic acid and sodium chloride. Two ml of the lysed cell suspension from each well is added to 8 ml of diluent. The number of nuclei is determined using a Coulter counter (ZBI model), and a percent growth for each drug concentration is calculated.

`CCN(CC)CCNc1ccc([N+](=O)[O-])c2[nH]c3ccccc3c(=O)c12.CS(=O)(=O)O` [Example 1, 1-[[2-(Diethylamino)ethyl]amino]-4-nitro-9-(10H)-acridinone, methanesulfonate (1:1)] was tested, and the MIC [1] was less than 0.46 µg/mL, the MIC (Bacillus cereus) was 12.3 µg/mL and the MIC (Streptococcus pneumoniae) was less than 0.46 µg/mL. It also gave a response vs control in vivo at 25 mg/kg [2] of 145%, a response vs control in vivo at 50 mg/kg [2] of 172% and an IC50 [3] of 450 nM. For the same molecule, the MIC (Escherichia coli) was 12.3 µg/mL and the MIC (Branhamella catarrhalis) was less than 0.46 µg/mL.
`CCCOc1ccc2[nH]c3c([N+](=O)[O-])ccc(NCCN(CC)CC)c3c(=O)c2c1.CS(=O)(=O)O` [Example 5, 1-[[2-(Diethylamino)ethyl]amino]-4-nitro-7-propoxy-9(10H)-acridinone, methanesulfonate] showed an MIC [1] of 0.46 µg/mL, an IC50 (HCT-8 cells) of 1950 nM and an MIC (Bacillus cereus) greater than 1000 µg/mL. The MIC (Streptococcus pneumoniae) was 1000 µg/mL, the response vs control in vivo at 12.5 mg/kg [2] was 122% and the response vs control in vivo at 25 mg/kg [2] was 136%. For the same molecule, the response vs control in vivo at 50 mg/kg [2] was 146%, the response vs control in vivo at 100 mg/kg [2] was 164% and the response vs control in vivo at 200 mg/kg [2] was 186%. It also gave an MIC (Escherichia coli) greater than 1000 µg/mL and an MIC (Branhamella catarrhalis) greater than 1000 µg/mL.
Work on `CCCCOc1ccc2[nH]c3c([N+](=O)[O-])ccc(NCCN(CC)CC)c3c(=O)c2c1.CS(=O)(=O)O` [Example 6, 7-Butoxy-1-[[2-(diethylamino)ethyl]amino]-4-nitro-9-(10H)-acridinone, methanesulfonate] yielded an MIC [1] greater than 1000 µg/mL, an MIC (Bacillus cereus) greater than 1000 µg/mL and an MIC (Streptococcus pneumoniae) greater than 1000 µg/mL. The response vs control in vivo at 25 mg/kg [2] was 139%, the response vs control in vivo at 50 mg/kg [2] was 160% and the IC50 [3] was 580 nM. It also gave an MIC (Escherichia coli) greater than 1000 µg/mL and an MIC (Branhamella catarrhalis) greater than 1000 µg/mL.
Molecule `CCCCOc1ccc2[nH]c3c([N+](=O)[O-])ccc(NCCN(C)C)c3c(=O)c2c1.CS(=O)(=O)O` [Example 11, 7-Butoxy-1-[[2-(dimethylamino)ethyl]amino]-4-nitro-9(10H)-acridinone, methanesulfonate] has an MIC [1] greater than 1000 µg/mL, an MIC (Bacillus cereus) greater than 1000 µg/mL and an MIC (Streptococcus pneumoniae) greater than 1000 µg/mL. It also gave a response vs control in vivo at 25 mg/kg [2] of 130%, a response vs control in vivo at 50 mg/kg [2] of 175% and an IC50 [3] of 1600 nM. The MIC (Escherichia coli) was greater than 1000 µg/mL and the MIC (Branhamella catarrhalis) was greater than 1000 µg/mL.
For `COc1ccc2[nH]c3c([N+](=O)[O-])ccc(NCC[N+](C)(C)[O-])c3c(=O)c2c1` [Example 14, 1-[[2-(Dimethylamino)ethyl]amino]-7-methoxy-4-nitro-9(10H)-acridinone, N^ω -oxide, 3-chlorobenzoate salt], the MIC [1] was 1.4 µg/mL, the MIC (Bacillus cereus) was 333 µg/mL and the MIC (Streptococcus pneumoniae) was less than 0.46 µg/mL. For the same molecule, the response vs control in vivo at 50 mg/kg [2] was 157%, the MIC (Escherichia coli) was 12.3 µg/mL and the MIC (Branhamella catarrhalis) was 12.3 µg/mL.
`CN(C)CCCNc1ccc([N+](=O)[O-])c2[nH]c3ccc(OC(=O)C(C)(C)C)cc3c(=O)c12` [Example 25, [8-[[3-(Dimethylamino)propyl]amino]-9,10-dihydro-5-nitro-9-oxo-2-acridinyl]-2,2-dimethylpropanoate, methanesulfonate (1:1), hemihydrate] gave an MIC [1] of 333 µg/mL, an MIC (Bacillus cereus) of 111 µg/mL and an MIC (Streptococcus pneumoniae) of 333 µg/mL. It also gave a response vs control in vivo at 1.56 mg/kg ([2]; 1.56 mg/kg) of 156%, a response vs control in vivo at 3.12 mg/kg ([2]; 3.12 mg/kg) of 173% and a response vs control in vivo at 6.25 mg/kg ([2]; 6.25 mg/kg) of 214%. It also gave a response vs control in vivo at 12.5 mg/kg [2] of 248%, an IC50 [3] of 15 nM and an MIC (Escherichia coli) of 111 µg/mL. It also gave an MIC (Branhamella catarrhalis) of 333 µg/mL.
Molecule `CCN(CC)CCNc1ccc([N+](=O)[O-])c2[nH]c3ccc(OC)c(Cl)c3c(=O)c12` [Example 27, 1-Chloro-8-[[2-Diethylamino)ethyl]amino]-2-methoxy-5-nitro-9(10H)acridinone, methanesulfonate] has an MIC [1] of less than 0.46 µg/mL, an MIC (Bacillus cereus) of 4.1 µg/mL and an MIC (Streptococcus pneumoniae) of 1.4 µg/mL. The IC50 [3] was 420 nM, the MIC (Escherichia coli) was 4.1 µg/mL and the MIC (Branhamella catarrhalis) was 1.4 µg/mL.
Work on `CCN(CC)CCNc1ccc([N+](=O)[O-])c2[nH]c3cc(O)ccc3c(=O)c12.CS(=O)(=O)O` [Example 28, 1-[[2-(Diethylamino)ethyl]amino]-6-hydroxy-4-nitro-9(10H)acridinone, methanesulfonate (1:1)] yielded an MIC [1] of less than 0.46 µg/mL, an MIC (Bacillus cereus) of 1.4 µg/mL and an MIC (Streptococcus pneumoniae) of less than 0.46 µg/mL. For the same molecule, the IC50 [3] was 360 nM, the MIC (Escherichia coli) was 1.4 µg/mL and the MIC (Branhamella catarrhalis) was less than 0.46 µg/mL.
In the case of `CCN(CC)CCNc1ccc([N+](=O)[O-])c2[nH]c3cccc(O)c3c(=O)c12.CS(=O)(=O)O` [Example 29, 1-[[2-(Diethylamino)ethyl]amino]-8-hydroxy-4-nitro-9-(10H)-acridinone, methanesulfonate], the MIC [1] is reported as less than 0.46 µg/mL, the MIC (Bacillus cereus) is reported as less than 0.46 µg/mL and the MIC (Streptococcus pneumoniae) is reported as less than 0.46 µg/mL. For the same molecule, the IC50 [3] was 88 nM, the MIC (Escherichia coli) was 1.4 µg/mL and the MIC (Branhamella catarrhalis) was less than 0.46 µg/mL.
`CCN(CC)CCNc1ccc([N+](=O)[O-])c2c1c(=O)c1ccccc1n2C` [Example 30, 1-[[2-(Diethylamino)ethyl]amino]-10-methyl-4-nitro-9(10H)-acridinone, methanesulfonate (1:1), hydrate (1:1)] gave an MIC [1] of 111 µg/mL, an MIC (Bacillus cereus) of 111 µg/mL and an MIC (Streptococcus pneumoniae) of 37 µg/mL. The response vs control in vivo at 200 mg/kg [2] was 147%, the MIC (Escherichia coli) was 111 µg/mL and the MIC (Branhamella catarrhalis) was 111 µg/mL.
Work on `CCN(CC)CCNc1ccc([N+](=O)[O-])c2c1c(=O)c1cc(OC)ccc1n2C.CS(=O)(=O)O` [Example 31, 1-[[2-(Diethylamino)ethyl]amino]-7-methoxy-10-methyl-4-nitro-9(10H)-acridinone, methanesulfonate (1:1)] yielded an MIC [1] of 1000 µg/mL, an MIC (Bacillus cereus) greater than 1000 µg/mL and an MIC (Streptococcus pneumoniae) greater than 1000 µg/mL. The response vs control in vivo at 100 mg/kg [2] was 128%, the response vs control in vivo at 200 mg/kg [2] was 128% and the MIC (Escherichia coli) was greater than 1000 µg/mL. For the same molecule, the MIC (Branhamella catarrhalis) was greater than 1000 µg/mL.
`CN(C)CCNc1ccc([N+](=O)[O-])c2c1c(=O)c1ccccc1n2C.CS(=O)(=O)O` [Example 32, 1-[[2-(Dimethylamino)ethyl]amino]-10-methyl-4-nitro-9(10H)-acridinone, methanesulfonate (1:1)] showed an MIC [1] of 333 µg/mL, an MIC (Bacillus cereus) greater than 1000 µg/mL and an MIC (Streptococcus pneumoniae) of 12.3 µg/mL. For the same molecule, the response vs control in vivo at 50 mg/kg [2] was 126%, the response vs control in vivo at 100 mg/kg [2] was 146% and the IC50 [3] was 3200 nM. It also gave an MIC (Escherichia coli) of 37 µg/mL and an MIC (Branhamella catarrhalis) greater than 1000 µg/mL.
In the case of `COc1ccc2c(c1)c(=O)c1c(NCCN(C)C)ccc([N+](=O)[O-])c1n2C` [Example 33], the IC50 (HCT-8 cells) is reported as 2270 nM, the response vs control in vivo at 100 mg/kg [2] is reported as 137% and the response vs control in vivo at 200 mg/kg [2] is reported as 144%. For the same molecule, the IC50 [3] was 1800 nM.
